17 compounds from patent US20120252796A1, “COMPOUNDS FOR THE TREATMENT OF DYSLIPIDEMIA AND RELATED DISEASES” (priority 2009, published 2012) can be followed below.

The term inhibition denotes how much of the control response was suppressed.

In experiment [1] the target is T1, PCSK9 (Homo sapiens, UniProt Q8NBP7). The experiment is described as follows: PCSK9-LDLR in vitro Binding Assay (ELISA). On the procedure:
The PCSK9-LDLR in vitro Binding Assay is a quantitative solid phase binding assay between PCSK9 and recombinant LDLR. Plates were pre-coated with a recombinant LDLR-AB domain, which binds PCSK9. Test compound at different concentration was added to the PCSK9 and added to LDLR immobilized on the wells. The amount of bound PCSK9 is measured by binding it with biotinylated anti-His-tag monoclonal antibody, followed by binding with horseradish peroxidase conjugated streptavidin substrate. The color was quantified by ELISA reader at […] which reflects the relative amount of PCSK9 that binds to LDLR in presence and absence of the inhibitor. EC50 values were calculated by nonlinear regression analysis using graph pad prism software. Each concentration point represents values in duplicates.
(An ELISA detects its analyte on a solid surface through an enzyme-linked reagent.)
Target sequence in this assay (Q8NBP7 153-692): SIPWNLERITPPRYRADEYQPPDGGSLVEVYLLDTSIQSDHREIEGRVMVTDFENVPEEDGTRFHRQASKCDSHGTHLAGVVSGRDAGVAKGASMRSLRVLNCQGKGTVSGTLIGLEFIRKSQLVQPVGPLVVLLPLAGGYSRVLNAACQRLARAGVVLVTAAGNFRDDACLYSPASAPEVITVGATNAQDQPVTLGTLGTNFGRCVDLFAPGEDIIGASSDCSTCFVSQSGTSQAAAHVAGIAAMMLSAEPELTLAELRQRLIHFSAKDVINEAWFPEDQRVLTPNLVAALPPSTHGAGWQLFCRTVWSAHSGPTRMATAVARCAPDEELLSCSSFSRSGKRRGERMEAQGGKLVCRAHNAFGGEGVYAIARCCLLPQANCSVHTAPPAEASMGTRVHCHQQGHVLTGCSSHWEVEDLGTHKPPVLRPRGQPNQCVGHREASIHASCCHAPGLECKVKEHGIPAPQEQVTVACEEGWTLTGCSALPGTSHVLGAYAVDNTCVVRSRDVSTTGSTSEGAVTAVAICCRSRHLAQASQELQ
Target sequence in this assay (Q8NBP7 31-152 partner limits assumed): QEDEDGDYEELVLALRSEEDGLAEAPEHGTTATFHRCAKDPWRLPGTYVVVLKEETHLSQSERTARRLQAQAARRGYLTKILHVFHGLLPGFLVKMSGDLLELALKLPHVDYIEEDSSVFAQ

Experiment [2] concerns LPS induced dyslipidemia model C57 mice. Put plainly: LDL-C lowering activity in LPS induced dyslipidemia model C57 mice. The format is in vivo. The conditions noted are these: male C57 mice, i.p. or oral, 24 hours after LPS, vs Vehicle group. On the procedure: Male C57 mice of 7-10 week age are grouped based on non-fasting LDL-C levels, on next day these mice were administered with Vehicle or test compounds (i.p. or oral) and 30 min after compound administration lipolysaccharide (LPS) was administered. After LPS administration all animals were kept on fasting for 24 hours, after that animals were bled and LDL-C was measured. The percent change in LDL-C in test compound group Vs Vehicle group was calculated.

In experiment [3] the target is T1, PCSK9. Put plainly: SPR binding studies (BIACORE3000). The conditions noted are these: 25° C., phosphate buffer pH 7.4; compounds run at 10 nM, 100 nM and 1 micro mole, concentration of the value not stated. On the procedure: Instrumentation: BIACORE3000 from GE Life Sciences was used and the Interaction analysis was performed at 25° C.
Buffers: phosphate buffer pH 7.4 supplied by Biacore supplemented with 0.01% dimethyl sulfoxide (DMSO) was used as running buffer during the assay.
Immobilization of Ligand: Sensor chip CM5 was used for analysis. The sensor chip consists of a carboxymethyl-modified dextran polymer linked to a gold-covered glass support. The ligand was diluted to 10 micro gram/ml in 10 mM sodium acetate, pH5.0 and immobilized to the sensor chip, using amine coupling. Running buffer without DMSO was used during immobilization. The surface was activated by injecting a solution containing 0.2M N-ethyl-N′-dimethyl aminopropyl-carbodiimide (EDC) and 50 mM N-hydroxy succinimide (NHS). The system was set for Aim for immobilization of about 1000 RU and the surface was blocked by injecting 1 Mehanolamine at pH 8.5. Then the surface was washed with 50 mM NaOH by injecting two 30 second-pulses to remove off non covalently bound ligand and to stabilize the baseline (automated procedure). Activated dextran was used as a reference surface. To ensure highest sensitivity the SPR Detector response was normalized before running the assay. By calibrating the detector at various light intensities under Conditions of total internal reflection (automated procedure). Solvent correction for DMSO was also carried to minimize the error in data.
Assay Design: A binding assay was set up for different compounds at three different concentrations (10 nM, 100 nM and 1 micro mole), and were injected over the reference and Ligand flow cells at a flow rate of 30 micro liter/min. Each cycle consisted of a 1-min waiting period for monitoring of the baseline stability and 3 minute injection of compound with a 5 minute Undisturbed dissociation phase, and the surface was regenerated with 50 mM NaoH solution. Compound responses in the reference flow cell were subtracted with that of ligand and a solvent correction run was carried in between and the binding potential of the compounds was reported as relative response units (RU).
Target sequence in this assay (Q8NBP7 153-692): as the sequence (Q8NBP7 153-692) above

The subject of experiment [4] is HF-HC diet fed Syrian golden hamsters. Put plainly: Lipid lowering effect in HF-HC diet fed hamster model. The conditions noted are these: oral gavage once daily, day 14. Details: concentration or dose not given beside the values. The format is in vivo. The source says:
In this experiment, Syrian golden hamsters which were kept on high fat—high cholesterol (HF-HC) fructose diet for 2 weeks were divided into various groups based on LDL-C and Total cholesterol levels. The treatment was given by oral gavages once daily for 14 days. The blood was collected by retro-orbital sinus puncture method under light ether anesthesia on day 0 (pretreatment), and day 14 of the treatment for lipid levels measurements. The percent change in LDL-C in compound group Vs Vehicle group was calculated.

On to “1-(2-methyl-5-((4-methyl-2-(4-(trifluoromethyl)phenyl)thiazol-5-yl)methyl)-1,3-dioxan-2-yl)-N—((tetrahydro-2H-pyran-4-yl)methyl)methanamine [Example 92]”, for which the “% Inhibition PCSK9” value in experiment [1] (Concentration 1 μM) worked out at 11%; in experiment [1] (Concentration 10 μM) it was 26%; in experiment [1] (Concentration 100 μM), 40%. In addition, the “% Change in LDL-C” value in experiment [2] is −35.8 ± 10.5%.

For the compound `Cc1oc(-c2ccccc2)nc1CC1COC(C)(C(=O)NO)OC1` (single isomer, unassigned) [Example 6, N-hydroxy-2-methyl-5-c-((5-methyl-2-phenyloxazol-4-yl)methyl)-1,3-dioxane-2-carboxamide], the “% Inhibition PCSK9” value was 10% in experiment [1] (5 µM), 11% in experiment [1] (10 µM) and 22% in experiment [1] (100 µM). The “Relative response (RU)” value in experiment [3] is listed as 2.65 RU.

Regarding `Cc1oc(-c2ccccc2)nc1CC1COC(C)(C(=O)NO)OC1` (single isomer, unassigned) [Example 7, N-hydroxy-2-methyl-5-t-((5-methyl-2-phenyloxazol-4-yl)methyl)-1,3-dioxane-2-carboxamide], the “% Inhibition PCSK9” value in experiment [1] (Concentration 1 μM) was determined as 11%. In addition, the “% Inhibition PCSK9” value in experiment [1] (Concentration 10 μM) is 12%. Further, in experiment [1] (Concentration 100 μM), the “% Inhibition PCSK9” value was 20%. Also, in experiment [4], the “% Change Vs Vehicle Control HDL-C” value was −20.1%, the “% Change Vs Vehicle Control LDL-C” value was −29.3%, the “% Change Vs Vehicle Control TC” value is given as −29.6% and the “% Change Vs Vehicle Control TG” value is −26.7%.

With `Cc1oc(-c2ccccc2)nc1CC1COC(C)(C(=O)NCC2CCOCC2)OC1` (stereo not drawn) [Example 8, 2-methyl-5-((5-methyl-2-phenyloxazol-4-yl)methyl)-N—((tetrahydro-2H-pyran-4-yl)methyl)-1,3-dioxane-2-carboxamide], in experiment [1] (Concentration 1 μM), 1 µM produced 18% inhibition. The compound also displayed an inhibition at 10 µM in experiment [1] (Concentration 10 μM) of 23%. In experiment [1] (Concentration 100 μM), this compound came in with an inhibition at 100 µM of 30%. The “% Change in LDL-C” value in experiment [2] is listed as −33.5 ± 5.4%.

Consider `Cc1oc(-c2ccccc2)nc1CC1COC(C)(C(=O)N2CCOCC2)OC1` (stereo not drawn) [Example 12, (2-methyl-5-c-((5-methyl-2-phenyloxazol-4-yl)methyl)-1,3-dioxan-2-yl)(morpholino)methanone], for which the “% Inhibition PCSK9” value in experiment [1] (Concentration 10 μM) is given as 19%; in experiment [1] (Concentration 100 μM) it was 18%. Besides, the “% Change in LDL-C” value in experiment [2] is listed as −40 ± 10.0%.

Regarding `Cc1oc(-c2ccccc2)nc1CC1COC(C)(C(=O)N2CCN(C)CC2)OC1` (stereo not drawn) [Example 14, (2-methyl-5-c-((5-methyl-2-phenyloxazol-4-yl)methyl)-1,3-dioxan-2-yl)(4-methylpiperazin-1-yl)methanone], the “% Inhibition PCSK9” value in experiment [1] (Concentration 10 μM) is recorded as 41%; in experiment [1] (Concentration 100 μM) it was 5%. Moreover, the “Relative response (RU)” value in experiment [3] is 15.81 RU.

For `Cc1oc(-c2ccccc2)nc1CC1COC(C)(C(=O)NCC(=O)N2CCOCC2)OC1` (stereo not drawn) [Example 19, 2-methyl-5-c-((5-methyl-2-phenyloxazol-4-yl)methyl)-N-(2-morpholino-2-oxoethyl)-1,3-dioxane-2-carboxamide], the figures for the “% Inhibition PCSK9” value in experiment [1] (Concentration 10 μM) and in experiment [1] (Concentration 100 μM) were 23% and 25%, respectively. The “Relative response (RU)” value in experiment [3] is 14.1 RU.

Take `Cc1oc(-c2ccccc2)nc1CC1COC(C)(C(=O)NCCC(=O)N2CCOCC2)OC1` (stereo not drawn) [Example 26, 2-methyl-5-c-((5-methyl-2-phenyloxazol-4-yl)methyl)-N-(3-morpholino-3-oxopropyl)-1,3-dioxane-2-carboxamide]: the “Relative response (RU)” value in experiment [3] is on record as 10.3 RU.

`Cc1oc(-c2ccccc2)nc1CCC1COC(C)(C(=O)NCC2CCOCC2)OC1` (stereo not drawn) [Example 37, 2-methyl-5-(2-(5-methyl-2-phenyloxazol-4-yl)ethyl)-N—((tetrahydro-2H-pyran-4-yl)methyl)-1,3-dioxane-2-carboxamide] displayed an inhibition at 1 µM in experiment [1] (Concentration 1 μM) of 24%. In experiment [1] (Concentration 10 μM), at 10 µM the inhibition was 15%. In experiment [1] (Concentration 100 μM), this compound came in with an inhibition at 100 µM of 20%. Moreover, in experiment [2], the “% Change in LDL-C” value is −35.4 ± 8.3%.

In turn, `Cc1oc(-c2ccccc2)nc1CCC1COC(C)(C(=O)N2CCOCC2)OC1` (stereo not drawn) [Example 40, (2-methyl-5-(2-(5-methyl-2-phenyloxazol-4-yl)ethyl)-1,3-dioxan-2-yl)(morpholino)methanone] registered an inhibition at 1 µM in experiment [1] (Concentration 1 μM) of 20%. Moreover, the inhibition at 10 µM in experiment [1] (Concentration 10 μM) was determined as 25%. Moreover, testing at 100 µM in experiment [1] (Concentration 100 μM) gave an inhibition of 11%. For the same compound, the “% Change in LDL-C” value in experiment [2] was −34.1 ± 5.7%.

`Cc1ccc(-c2nc(CC3COC(C)(C(=O)NO)OC3)c(C)o2)cc1` (stereo not drawn) [Example 59, N-hydroxy-2-methyl-5-((5-methyl-2-(p-tolyl)oxazol-4-yl)methyl)-1,3-dioxane-2-carboxamide] came in with an inhibition at 1 µM in experiment [1] (Concentration 1 μM) of 26%. Further, the inhibition at 10 µM in experiment [1] (Concentration 10 μM) was 27%. In experiment [1] (Concentration 100 μM), this compound had an inhibition at 100 µM of 61%. For the same compound, the “Relative response (RU)” value in experiment [3] worked out at 1.36 RU.

In the case of `Cc1ccc(-c2nc(CC3COC(C)(C(=O)NCC4CCOCC4)OC3)c(C)o2)cc1` (stereo not drawn) [Example 64, 2-methyl-5-t-((5-methyl-2-(p-tolyl)oxazol-4-yl)methyl)-N—((tetrahydro-2H-pyran-4-yl)methyl)-1,3-dioxane-2-carboxamide], the “% Inhibition PCSK9” value worked out at 20% in experiment [1] (Concentration 0.1 μM); 23% in experiment [1] (Concentration 1 μM, 1 µM); 25% in experiment [1] (Concentration 10 μM, 10 µM); 49% in experiment [1] (Concentration 100 μM, 100 µM). The “Relative response (RU)” value in experiment [3] is 3.48 RU.

In experiment [1] (Concentration 1 μM), `Cc1oc(C(C)(C)C)nc1CC1COC(C)(C(=O)N2CCOCC2)OC1` (stereo not drawn) [Example 73, (5-((2-(tert-butyl)-5-methyloxazol-4-yl)methyl)-2-methyl-1,3-dioxan-2-yl)(morpholino)methanone] had an inhibition at 1 µM of 25%. In experiment [1] (Concentration 10 μM), this compound registered an inhibition at 10 µM of 27%. Besides, at 100 µM the inhibition in experiment [1] (Concentration 100 μM) was 37%. Further, the “Relative response (RU)” value in experiment [3] came out at 2.4 RU.

`Cc1oc(-c2ccncc2)nc1CC1COC(C)(C(=O)NO)OC1` (stereo not drawn) [Example 80, N-hydroxy-2-methyl-5-c-((5-methyl-2-(pyridin-4-yl)oxazol-4-yl)methyl)-1,3-dioxane-2-carboxamide]: the “% Inhibition PCSK9” value in experiment [1] (Concentration 1 μM, 1 µM) is reported as 32%; in experiment [1] (Concentration 10 μM, 10 µM), 44%; in experiment [1] (Concentration 100 μM, 100 µM) it was 34%. In experiment [3], the “Relative response (RU)” value amounted to 2.64 RU.

As for `Cc1oc(-c2ccncc2)nc1CC1COC(C)(C(=O)NCC2CCOCC2)OC1` (stereo not drawn) [Example 85, 2-methyl-5-t-((5-methyl-2-(pyridin-4-yl)oxazol-4-yl)methyl)-N—((tetrahydro-2H-pyran-4-yl)methyl)-1,3-dioxane-2-carboxamide], the “% Inhibition PCSK9” value in experiment [1] (Concentration 1 μM, 1 µM) was 22%; in experiment [1] (Concentration 10 μM, 10 µM), 30%; in experiment [1] (Concentration 100 μM, 100 µM), 44%. In experiment [3], the “Relative response (RU)” value stood at 17.29 RU.

With `Cc1oc(-c2ccncc2)nc1CC1COC(C)(C(=O)NCC(=O)N2CCOCC2)OC1` (stereo not drawn) [Example 86, 2-methyl-5-c-((5-methyl-2-(pyridin-4-yl)oxazol-4-yl)methyl)-N-(2-morpholino-2-oxoethyl)-1,3-dioxane-2-carboxamide], the “% Inhibition PCSK9” value was found to be 11% in experiment [1] (Concentration 10 μM, 10 µM) and 15% in experiment [1] (Concentration 100 μM, 100 µM). Moreover, the “Relative response (RU)” value in experiment [3] worked out at 14.95 RU.

Consider “N-hydroxy-2-methyl-5-(2-(5-methyl-2-phenyloxazol-4-yl)ethyl)-1,3-dioxane-2-carboxamide [Example 34]”, for which the “% Inhibition PCSK9” value in experiment [1] (Concentration 1 μM) came out at 11%. The “% Inhibition PCSK9” value in experiment [1] (Concentration 10 μM) came out at 12%. In addition, the “% Inhibition PCSK9” value in experiment [1] (Concentration 100 μM) is recorded as 15%. Besides, the “Relative response (RU)” value in experiment [3] came to 1.95 RU. Moreover, in experiment [4], the “% Change Vs Vehicle Control HDL-C” value is given as −10.3%, the “% Change Vs Vehicle Control LDL-C” value was −38.2%, the “% Change Vs Vehicle Control TC” value is given as −32.6% and the “% Change Vs Vehicle Control TG” value was found to be 2.2%.
